Laboratory results reported in patent US20130287721A1, “METHOD FOR COUNTERACTING AMMONIA MALODOR” (Firmenich SA, priority 2010, published 2013).

Test system: ammonia lateralization threshold
Test: Panel evaluation of the lateralization threshold (LT) of ammonia alone and in combination with a PRM
Type: in vivo, panellists
Parameters: LT of ammonia Panellist 1 Cond II / LT of ammonia Panellist 2 Cond II / LT of ammonia Panellist 3 Cond II: unit not given here
Conditions: for LT of ammonia Panellist 1 Cond II / LT of ammonia Panellist 2 Cond II / LT of ammonia Panellist 3 Cond II / LT of ammonia Panellist 1 %Δ / LT of ammonia Panellist 2 %Δ / LT of ammonia Panellist 3 %Δ: Table 4; for LT of ammonia Panellist 1 Cond II / LT of ammonia Panellist 2 Cond II / LT of ammonia Panellist 3 Cond II: ammonia stimulus combined with PRM stimulus; for LT of ammonia Panellist 1 %Δ / LT of ammonia Panellist 2 %Δ / LT of ammonia Panellist 3 %Δ / Ammonia LT Panellist 1 % Δ / Ammonia LT Panellist 2 % Δ / Ammonia LT Panellist 3 % Δ: change of ammonia LT, Cond II (with PRM) vs Cond I (ammonia alone); for Ammonia LT Panellist 1 Cond II / Ammonia LT Panellist 2 Cond II / Ammonia LT Panellist 1 % Δ / Ammonia LT Panellist 2 % Δ / Ammonia LT Panellist 3 Cond II / Ammonia LT Panellist 3 % Δ: Table 3; for Ammonia LT Panellist 1 Cond II / Ammonia LT Panellist 2 Cond II / Ammonia LT Panellist 3 Cond II: ammonia stimulus combined with PRM stimulus (concentration of Table 2 in propylene glycol)
Procedure: An ammonia stimulus test range was prepared. To ensure a stable level of ammonia in each stimulus, the ammonia headspace was stabilized by combining appropriate concentrations of NH4Cl, NaOH and H2O instead of simply adding ammonia directly to a solvent. Different concentrations of ammonia were used to create a stimulus test range by utilizing the appropriate amount of each compound (see Table 1).
A stimulus was also prepared for each PRM which was intended to be combined with ammonia stimuli. As the PRMs differed in their potency and to ensure that each PRM stimulus had approximately the same potency, an abbreviated dose response curve was constructed for each PRM by having four panellists evaluate the intensity of five concentration levels of the PRM dissolved in propylene glycol in duplicate. Assessments were made relative to the reference of 170 ppm allyl heptanoate in propylene glycol, which intensity was set to 0. Based upon the average scores, a rough intensity match was made for each PRM utilizing one of the following criteria. If one of the tested concentration levels averaged at or near zero, this concentration level was selected. If the rating created any sort of reasonable curve, the equation of the curve was determined and solved for 0 to arrive at the PRM assessment level. If multiple concentration levels were equally distant form the match level, then the standard deviation across individuals was considered, as were the individual responses. In general, the PRM level was selected to be on average close to 0 with low variability, with two panellists saying the level was a bit too high and the other two panellists saying the level was a bit too low. The PRMs for which a stimulus was prepared are listed in Table 2 below, together with the concentration of the PRM in the stimulus.
Volunteers were screened for their ability to lateralize ammonia stimuli. For the screening, the experimenter measured the participant's lateralization threshold for ammonia using a two-alternative forced choice modified staircase procedure employing a four-in, two-down, one-up rule with a five reversal criterion, as described below, On each trial volunteers were presented with a pair of glass bottles with clean, custom-made nose pieces. One bottle contained ammonia at a particular level selected from Table 1 and the other bottle contained water only. Each bottle was applied to one nostril using the nose piece. The volunteers were asked to identify which bottle in each pair contained ammonia.
If the ammonia stimulus was correctly identified in four consecutive trials, the concentration was decreased by one level of Table 1 on the next trial. If an incorrect answer was provided, the concentration was increased by one level of Table 1. Location (left or right nostril) of the stimulus was randomized over presentations. Testing continued until one of the following occurred: • 1) Five reversals (correct decision followed by an incorrect decision or vice versa) were achieved; • 2) The volunteer gave a correct response twice in a row at the lowest level of Table 1; or • 3) The volunteer gave an incorrect response at the highest level of Table 1.
In the first circumstance, threshold values were then calculated by averaging the last four reversals. In the second circumstance, the LT was the lowest level. In the third circumstance, the LT could not be calculated. Volunteers were considered qualified to participate in the panel evaluation if their LT could be calculated (Circumstance 1).
The LT of ammonia, both alone and in combination with diverse PRM, was determined. A repeated-measures design was used, such that the LT with and without the addition of a PRM were both measured at the same time in one person by utilizing interwoven stimuli presentations. The LT for each PRM was measured by two to three panellists, the third panellists being included if the results of the first to panellists disagreed. […]

Row | Compound | LT of ammonia Panellist 1 Cond II | LT of ammonia Panellist 2 Cond II | LT of ammonia Panellist 3 Cond II | LT of ammonia Panellist 1 %Δ [%] | LT of ammonia Panellist 2 %Δ [%] | LT of ammonia Panellist 3 %Δ [%] | Ammonia LT Panellist 1 Cond II [ppm] | Ammonia LT Panellist 2 Cond II [ppm] | Ammonia LT Panellist 1 % Δ [%] | Ammonia LT Panellist 2 % Δ [%] | Ammonia LT Panellist 3 Cond II [ppm] | Ammonia LT Panellist 3 % Δ [%]
1 | 3-Methyl-(4/5)-cyclopentadecenone [Muscenone ™] | 11.1 | 11.1 | 11.1 | 454 | 77 | 214 |  |  |  |  |  | 
2 | C=C1CCCC(C)(C)C1C(=O)/C=C/C (racemic) [Gamma damascone, (+−)-(E)-1-(2,2-dimethyl-6-methylene-1-cyclohexyl)-2-buten-1-one] | 6.3 | 19.6 | 11.1 | 214 | 885 | 456 |  |  |  |  |  | 
3 | CC1C(=O)O[C@H]2C[C@@H](C)CC[C@H]12 (mixture of isomers) [Koumalactone ®, (3aRS,6SR,7aSR)-perhydro-3,6-dimethyl-benzo[B]furan-2-one] |  |  |  |  |  |  | 19.1 | 71.9 | 162 | 214 |  | 
4 | CCCCC[C@H]1CCC[C@H]1O (relative stereo) [Cis-2-pentyl-1-cyclopentanol] | 2.0 | 0.4 | 3.5 | 216 | 90 | 212 |  |  |  |  |  | 
5 | C[C@H]1[C@@H]2CC(C[C@@]13C=CC(=O)CC3)C2(C)C (single isomer, unassigned; (+)) | 0.4 | 0.6 | 0.6 | 75 | 417 | 215 |  |  |  |  |  | 
6 | CCC1CC(C)(C)CCC1=O (stereo not shown) [2-Ethyl-4,4-dimethyl-1-cyclohexanone] | 3.5 | 2.0 | 2.0 | 212 | 471 | 217 |  |  |  |  |  | 
7 | C=C(CC(C)CO)C1CC=C(C)C1(C)C (stereo not shown) [2-Methyl-4-(2,2,3-trimethyl-3-cyclopenten-1-yl)-4-penten-1-ol] | 3.5 | 3.5 | 2.0 | 212 | 212 | 852 |  |  |  |  |  | 
8 | CC(=O)OCCC1CCCCC1 [2-cyclohexylethyl acetate] | 2.0 | 1.1 | 1.1 | 848 | 465 | 842 |  |  |  |  |  | 
9 | CC(C)CCCC(C)CCO (stereo not shown) [3,7-Dimethyl-1-octanol] | 6.3 | 3.5 | 3.5 | 214 | 77 | 77 |  |  |  |  |  | 
10 | CCCCC(CC)CCC(C)O (stereo not shown) [5-ethyl-2-nonanol] | 19.6 | 6.2 | 6.3 | 885 | 452 | 214 |  |  |  |  |  | 
11 | CCCc1ccc2c(c1)OCC(=O)CO2 [7-Propyl-2H,4H-1,5-benzodioxepin-3-one] | 11.1 | 6.3 | 3.5 | 456 | 453 | 212 |  |  |  |  |  | 
12 | C[C@@H]1CC[C@H]2[C@H](C)C(=O)O[C@@H]2C1 [(+)-(3S,3AS,6R,7AR)-perhydro-3,6-dimethyl-benzo[B]furan-2-one] | 19.6 | 3.5 | 11.1 | 885 | 4929 | 1682 |  |  |  |  |  | 
13 | CC/C=C\CCO [(Z)-3-hexen-1-ol] |  |  |  |  |  |  | 2.3 | 225.5 | −68 | 0 | 56.3 | 671
14 | CCC/C(C)=C\COC(C)=O [Aladinate ®, (Z)-3-methyl-2-hexenyl acetate] |  |  |  |  |  |  | 19.1 | 71.9 | −16 | 0 |  | 
15 | C=CCOC(=O)CCCCCC [Allyl heptanoate] |  |  |  |  |  |  | 71.9 | 225.5 | 28 | 20 |  | 
16 | CC(C)=CCC[C@](C)(O)[C@@H]1CC=C(C)CC1 [Alpha-bisabolol] |  |  |  |  |  |  | 7.3 | 172.7 | 213 | 655 |  | 
17 | CC(OC=O)C1CCCC(C)(C)C1 (stereo not shown) [Aphermate] |  |  |  |  |  |  | 6.1 | 71.9 | −68 | −59 |  | 
18 | CCCC(C)C(=O)OCC (stereo not shown) [Applinate ®, Ethyl 2-methyl-pentanoate] |  |  |  |  |  |  | 2.3 | 55.1 | −62 | −23 |  | 
19 | CC=CC(=O)C1=C(C)CCCC1(C)C [Beta Dorinone ®, 1-(2,6,6-trimethyl-1-cyclohexen-1-yl)-2-buten-1-one] | 11.1 | 19.6 | 2.0 | 214 | 885 | 1558 |  |  |  |  |  | 
20 | CCCCOC(C)=O [Butyl acetate] |  |  |  |  |  |  | 7.3 | 225.5 | 213 | 1079 |  | 
21 | C=C(C)C1CC=C(C)C(=O)C1 (stereo not shown) [Carvone] |  |  |  |  |  |  | 19.1 | 225.5 | 214 | 214 |  | 
22 | CC1(C)CCCC2(C)C1CCC1(C)OCCC12 (stereo not shown) [Cetalox ®, Dodecahydro-3a,6,6,9a-tetramethyl-naphtho[2,1-b]furan] |  |  |  |  |  |  | 2.3 | 225.5 | −90 | 2988 | 2.3 | −68
23 | CC(C)=CCCC(C)CCO (stereo not shown) [Citronellol] |  |  |  |  |  |  | 60.0 | 225.5 | 2978 | 20 |  | 
24 | COc1cc(C)ccc1O [Creosol H] |  |  |  |  |  |  | 17.9 | 7.3 | −68 | −90 |  | 
25 | C=CCOC(=O)COC1CCCCC1 [Cyclogalbanate, Allyl (cyclohexyloxy)-acetate] | 2.0 | 6.3 | 3.5 | 216 | 453 | 212 |  |  |  |  |  | 
26 | C/C=C/C(=O)C1C(C)C=CCC1(C)C (stereo not shown) [Delta damascone ®, Delta damascone] |  |  |  |  |  |  | 7.3 | 225.5 | −68 | 214 | 7.3 | −96
